Test results taken from US8697691B2, “Alkyl 3-((2-amidoethyl)amino)-8-azabicyclo[3.2.1]octane-8-carboxylate analogs as selective M1 agonists and methods of making and using same” (Vanderbilt University, priority 2009, dated 2014).
Like-named read-outs stand apart in the source and are kept apart here.

Molecular target: T1, human M1 receptor (Homo sapiens, UniProt P11229)
T1 construct: host or cells: CHO-K1
T1 sequence (P11229 1-460): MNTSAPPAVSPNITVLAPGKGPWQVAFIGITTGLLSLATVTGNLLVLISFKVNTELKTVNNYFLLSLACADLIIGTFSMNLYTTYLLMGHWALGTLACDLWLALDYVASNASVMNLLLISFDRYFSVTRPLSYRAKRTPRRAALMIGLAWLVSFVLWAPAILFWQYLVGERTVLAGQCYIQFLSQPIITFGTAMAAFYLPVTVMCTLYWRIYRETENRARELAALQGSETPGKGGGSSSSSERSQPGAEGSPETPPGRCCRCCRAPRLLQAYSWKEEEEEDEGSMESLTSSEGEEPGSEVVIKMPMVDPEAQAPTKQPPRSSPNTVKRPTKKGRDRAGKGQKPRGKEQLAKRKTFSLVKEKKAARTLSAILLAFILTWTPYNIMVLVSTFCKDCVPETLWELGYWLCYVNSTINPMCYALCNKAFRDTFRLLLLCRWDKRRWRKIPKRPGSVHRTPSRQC
Experiment: Calcium mobilization assay, CHO-K1 cells stably expressing hM1 (high throughput, FDSS 6000)
Format: cell-based
Conditions: for Emax: CHO-K1, read-out: Efficacy (% Max ACh)
From the text: Chinese hamster ovary (CHO-K1) cells stably expressing rat (r)M1 were purchased from the American Type Culture Collection and cultured according to their indicated protocol. CHO cells stably expressing human (h)M2, hM3, and hM5 were described previously (Levey et al., 1991); hM1 and hM4 cDNAs were purchased from Missouri S&T cDNA Resource; rM4 cDNA was provided by T. I. Bonner (National Institutes of Health, Bethesda, Md.). hM1, hM4, and rM4 cDNAs were used to stably transfect CHO-K1 cells purchased from the American Type Culture Collection using Lipofectamine2000. To make stable hM2, hM4 and rM4 cell lines for use in calcium mobilization assays, these cells also were stably transfected with a chimeric G-protein (Gqi5) (provided by B. R. Conklin, University of California, San Francisco) using Lipofectamine 2000. rM1, hM3, and hM5 cells were grown in Ham's F-12 medium containing 10% heat-inactivated fetal bovine serum (FBS), 20 mM HEPES, and 50 μg/mL G418 sulfate. hM2-Gqi5 and hM4-Gqi5 cells were grown in the same medium also containing 500 μg/mL Hygromycin B. Stable rM4-Gqi5 cells were grown in DMEM containing 10% heat-inactivated FBS, 20 mM HEPES, 400 μg/mL G418 sulfate, and 500 μg/mL Hygromycin B. The rat M1 Y381A orthosteric mutant receptor cDNA was generated using the Quik-Change site-directed mutagenesis kit (Stratagene) and verified by sequencing. CHO-K1 cells were stably transfected with this cDNA using Lipofectamine2000 and screened for expression based on calcium mobilization in response to the allosteric M1 agonist N-desmethylclozapine.
For high throughput measurement of agonist-evoked increases in intracellular calcium, CHO-K1 cells stably expressing muscarinic receptors were plated in growth medium lacking G418 and hygromycin at 15,000 cells/20 μL/well (hM1, hM2-Gqi5, hM3, hM4-Gq15, and hM5) in Greiner 384-well black-walled, tissue culture (TC)-treated, clear-bottom plates (VWR). Cells were incubated overnight at 37° C. and 5% CO2. The next day, cells were washed using an ELX 405 (BioTek) with three washes (50 μL) of assay buffer then aspirated to 15 μL. Next, 5 μL of 8 μM Fluo-4/acetoxymethyl ester (Invitrogen, Carlsbad, Calif.) prepared as a 2.3 mM stock in DMSO and mixed in a 1:1 ratio with 10% (w/v) Pluronic F-127 and diluted in assay buffer was added to the wells and the cell plates were incubated for 45 min at 37° C. and 5% CO2. Dye was removed by washing with the ELX 405 (three 50 μL washes of assay buffer) then aspirated to 20 μL. Agonist and compound master plates were formatted in an 11 point CRC format (1:3 dilutions) in 100% DMSO with a starting concentration of 10 mM using the BRAVO liquid handler (Agilent). Test compound CRCs were then transferred to daughter plates ([…]) using the Echo acoustic plate reformatter (Labcyte, Sunnyvale, Calif.) and then diluted into assay buffer (40 μL) to a 2× stock using a Thermo Fisher Combi (Thermo Fisher Scientific, Waltham, Mass.). Calcium flux was measured using the Functional Drug Screening System (FDSS) 6000 (Hamamatsu Corporation, Tokyo, Japan) as an increase in the fluorescent static ratio. 20 μL of Agonist Compounds were applied to cells using the automated system of the FDSS 6000 at 4 s into the 300 s protocol and the data were collected at 1 Hz. Concentration-response curves were generated using a four-parameter logistical equation in XLfit curve fitting software (IDBS, Bridgewater, N.J.) for Excel (Microsoft, Redmond, Wash.) or Prism (GraphPad Software, Inc., San Diego, Calif.).

[1] = human M1, agonist-evoked calcium mobilization in CHO-K1 cells, read-out: Potency (EC50)

| SMILES | Emax | EC50 [1] | EC50 |
| --- | --- | --- | --- |
| CCOC(=O)N1[C@@H]2CC[C@H]1C[C@H](NCCNC(=O)N1CCOCC1)C2 [Example 38, ethyl 3-((3-exo)-(2-(morpholine-4-carboxamido)ethyl)-amino)-8-azabicyclo[3.2.1]octane-8-carboxylate] | 37% | 3600 nM |  |
| CCOC(=O)N1[C@@H]2CC[C@H]1C[C@H](NCCNC(=O)N1CCCCC1)C2 [Example 28, ethyl 3((3-exo)-(2-(piperidine-1-carboxamido)ethyl)amino)-8-azabicyclo[3.2.1]octane-8-carboxylate] | 46% | 700 nM |  |
| CCOC(=O)N1[C@@H]2CC[C@H]1C[C@H](NCCNC(=O)C1CCCCC1)C2 [Example 34, ethyl 3-((3-exo)-(2-(cyclohexanecarboxamido)-ethyl)amino)-8-azabicyclo[3.2.1]octane-8-carboxylate] | 25% | 3200 nM |  |
| CCOC(=O)N1C2CCC1CC(NCCNC(=O)c1cccc(OC)c1)C2 (stereo not drawn) [Example 41, ethyl 3-((3-exo)-(2-(3-methoxybenzamido)ethyl)-amino)-8-azabicyclo[3.2.1]octane-8-carboxylate] | 19% |  |  |
| CCOC(=O)N1[C@@H]2CC[C@H]1C[C@H](NCCNC(=O)c1ccccc1Cl)C2 [Example 42] | 25% |  |  |
| CCOC(=O)N1[C@@H]2CC[C@H]1C[C@H](NCCNC(=O)c1ccccc1C)C2 [Example 31, ethyl 3-((3-exo)-(2-(2-methylbenzamido)ethyl)-amino)-8-azabicyclo[3.2.1]octane-8-carboxylate] | 38% |  | 2500 nM |
| CC(C)OC(=O)N1C2CCC1CC(NCCNC(=O)c1ccccc1)C2 (stereo not drawn) [Example 37, isopropyl 3-((3-exo)-(2-benzamidoethyl)amino)-8-azabicyclo[3.2.1]octane-8-carboxylate] | 7% |  |  |
| CCOC(=O)N1[C@@H]2CC[C@H]1C[C@H](NCCNC(=O)c1cc(F)cc(F)c1)C2 [Example 36, ethyl 3-((3-exo)-(2-(3,5-difluorobenzamido)ethyl)-amino)-8-azabicyclo[3.2.1]octane-8-carboxylate] | 37% | 2600 nM |  |
| CCOC(=O)N1[C@@H]2CC[C@H]1C[C@H](NCCNC(=O)c1ccc(F)cc1)C2 [Example 33, ethyl 3-((3-exo)-(2-(4-fluorobenzamido)ethyl)-amino)-8-azabicyclo[3.2.1]octane-8-carboxylate] | 48% | 1700 nM |  |
| CCOC(=O)N1[C@@H]2CC[C@H]1C[C@H](NCCNC(=O)c1cccs1)C2 [Example 40, ethyl 3-((3-exo)-(2-(thiophene-2-carboxamido)ethyl)-amino)-8-azabicyclo[3.2.1]octane-8-carboxylate] | 15% |  | 2100 nM |
| COC(=O)N1C2CCC1CC(NCCNC(=O)c1ccccc1)C2 (stereo not drawn) [Example 29, methyl 3-((3-exo)-(2-benzamidoethyl)amino)-8-azabicyclo[3.2.1]octane-8-carboxylate] | 7% |  |  |
| C=CCOC(=O)N1[C@@H]2CC[C@H]1C[C@H](NCCNC(=O)c1ccccc1)C2 [Example 30, allyl 3-((3-exo)-(2-benzamidoethyl)amino)-8-azabicyclo[3.2.1]octane-8-carboxylate] | 29% |  |  |
| CCOC(=O)N1C2CCC1CC(NCCNC(=O)N1[C@H](C)CCC[C@@H]1C)C2 (stereo partly drawn) [Example 32] | 26% |  |  |
| CCOC(=O)N1[C@@H]2CC[C@H]1C[C@H](NCCNC(=O)c1ccc(F)c(F)c1)C2 [Example 39, ethyl 3-((3-exo)-(2-(3,4-difluorobenzamido)ethyl)-amino)-8-azabicyclo[3.2.1]octane-8-carboxylate] | 46% | 1400 nM |  |
| CCOC(=O)N1[C@@H]2CC[C@H]1C[C@H](NCCNC(=O)c1cccc(Cl)c1)C2 [Example 35, ethyl 3-((3-exo)-(2-(3-chlorobenzamido)ethyl)-amino)-8-azabicyclo[3.2.1]octane-8-carboxylate] | 57% | 490 nM |  |
